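Briefly, cells in 96-well plates were exposed to five compound concentrations for 48 h, and endpoints were estimated by linear interpolation. GI50 is the concentration that inhibits growth by half.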 Active and inactive are the calls of the source. Rule as the data show it: active = GI50 up to about 1.1 µM and inactive = higher.
Experiments:
Test in all cases: NCI-60 cell line screen, 48 h
ACHN = tested on: ACHN
LOX IMVI = tested on: LOX IMVI
SF-295 = tested on: SF-295
SF-268 = tested on: SF-268
SF-539 = tested on: SF-539
T47D = tested on: T47D
Malme-3M = tested on: Malme-3M
CAKI-1 = tested on: CAKI-1
SW-620 = tested on: SW-620
K562 = tested on: K562
SNB-75 = tested on: SNB-75
A549 = tested on: A549
COLO 205 = tested on: COLO 205
OVCAR-4 = tested on: OVCAR-4
MDA-N = tested on: MDA-N
SN12C = tested on: SN12C
786-0 = tested on: 786-0
RPMI-8226 = tested on: RPMI-8226
MOLT-4 = tested on: MOLT-4

SMILES	GI50 (ACHN)	GI50 (LOX IMVI)	GI50 (SF-295)	GI50 (SF-268)	GI50 (SF-539)	GI50 (T47D)	GI50 (Malme-3M)	GI50 (CAKI-1)	GI50 (SW-620)	GI50 (K562)	GI50 (SNB-75)	GI50 (A549)	GI50 (COLO 205)	GI50 (OVCAR-4)	GI50 (MDA-N)	GI50 (SN12C)	GI50 (786-0)	GI50 (RPMI-8226)	GI50 (MOLT-4)
Nc1cc(S(N)(=O)=O)ccc1SSc1ccc(S(N)(=O)=O)cc1N	> 62.5 µM (inactive)	> 100 µM (inactive)	> 100 µM (inactive)	> 100 µM (inactive)	> 100 µM (inactive)	> 100 µM (inactive)	> 100 µM (inactive)	> 100 µM (inactive)	> 100 µM (inactive)	> 96.6 µM (inactive)	> 100 µM (inactive)	> 100 µM (inactive)	> 100 µM (inactive)	> 100 µM (inactive)	> 100 µM (inactive)	> 100 µM (inactive)	> 100 µM (inactive)	> 100 µM (inactive)	62.7 µM (inactive)
COc1ccc2c(c1)c(=O)c1c(NCCCN(C)CCCNc3ccc4c(=O)n(CCN(C)C)c(=O)n5c6ccc(OC)cc6c(=O)c3c45)ccc3c(=O)n(CCN(C)C)c(=O)n2c31	< 0.01 µM (active)	< 0.01 µM (active)	< 0.0169 µM (active)	0.0998 µM (active)	0.08 µM (active)	0.619 µM (active)	0.484 µM (active)	< 0.015 µM (active)	< 0.01 µM (active)	< 0.01 µM (active)	< 0.0175 µM (active)	< 0.01 µM (active)	< 0.0473 µM (active)	< 0.01 µM (active)	0.17 µM (active)	< 0.01 µM (active)	< 0.01 µM (active)	< 0.01 µM (active)	< 0.01 µM (active)
COc1cccc(C2CC(C)(O)Oc3cc4c(cc32)OCO4)c1O (stereo not drawn)	31.8 µM (inactive)	25.3 µM (inactive)	19.4 µM (inactive)	31 µM (inactive)	17.4 µM (inactive)	64.4 µM (inactive)	29.2 µM (inactive)	39.4 µM (inactive)	22.8 µM (inactive)	9.68 µM (inactive)	14.2 µM (inactive)	34.4 µM (inactive)	19.5 µM (inactive)	38.8 µM (inactive)	2.72 µM (inactive)	28.7 µM (inactive)	24.8 µM (inactive)	32.5 µM (inactive)	37.4 µM (inactive)
[N-]=[N+]=NC[C@H]1OCO[C@H](CN=[N+]=[N-])[C@@H](OCCOCCCl)[C@@H]1OCCOCCCl		> 100 µM (inactive)	> 100 µM (inactive)	> 100 µM (inactive)	> 100 µM (inactive)	> 100 µM (inactive)	> 100 µM (inactive)	> 100 µM (inactive)	> 100 µM (inactive)	> 100 µM (inactive)	> 100 µM (inactive)	> 100 µM (inactive)	> 100 µM (inactive)	> 100 µM (inactive)	> 100 µM (inactive)	> 100 µM (inactive)	> 100 µM (inactive)	> 100 µM (inactive)	> 100 µM (inactive)
COc1cc(/C=C/C(=N\NS(=O)(=O)c2ccc(C)cc2)c2sc(NNC(C)=O)nc2C)ccc1O	> 100 µM (inactive)	> 100 µM (inactive)	> 100 µM (inactive)	> 100 µM (inactive)	> 100 µM (inactive)	> 100 µM (inactive)	> 100 µM (inactive)	> 100 µM (inactive)	> 100 µM (inactive)		> 100 µM (inactive)	> 100 µM (inactive)	> 100 µM (inactive)	> 100 µM (inactive)	> 100 µM (inactive)	> 100 µM (inactive)	> 100 µM (inactive)	> 100 µM (inactive)	> 100 µM (inactive)
Cc1cc2[nH]c3[nH]c(=O)[nH]c(=O)c3c2cc1C	> 100 µM (inactive)	> 100 µM (inactive)	> 100 µM (inactive)	> 100 µM (inactive)	> 100 µM (inactive)	> 100 µM (inactive)	> 100 µM (inactive)	> 100 µM (inactive)	> 100 µM (inactive)		> 100 µM (inactive)	> 100 µM (inactive)	> 100 µM (inactive)		> 100 µM (inactive)	> 100 µM (inactive)	> 100 µM (inactive)	> 100 µM (inactive)	
CCOC(=O)C1(C(=O)OCC)Nc2cccnc2N(C)N1		25.4 µM (inactive)	> 100 µM (inactive)	40.6 µM (inactive)	16.6 µM (inactive)	20.1 µM (inactive)	48.1 µM (inactive)	19 µM (inactive)	11.1 µM (inactive)	22.8 µM (inactive)	> 100 µM (inactive)	96.8 µM (inactive)	11.6 µM (inactive)	17.7 µM (inactive)	17.5 µM (inactive)	19.1 µM (inactive)	17.9 µM (inactive)	16.2 µM (inactive)	12.4 µM (inactive)
CCc1c(Cl)nc(Cl)nc1Cl	0.076 µM (active)	0.0199 µM (active)	2.05 µM (inactive)	0.217 µM (active)	0.372 µM (active)	0.339 µM (active)	0.0509 µM (active)	0.0484 µM (active)	0.0449 µM (active)	0.0208 µM (active)	1.17 µM (inactive)	1.95 µM (inactive)	0.0764 µM (active)	0.867 µM (active)	0.259 µM (active)	0.333 µM (active)	0.122 µM (active)	0.049 µM (active)	0.0173 µM (active)
NC(=O)CSc1c2cc(O)ccc2nc2ccc(O)cc12	> 10 µM (inactive)	> 10 µM (inactive)	> 10 µM (inactive)	> 10 µM (inactive)	> 10 µM (inactive)	> 10 µM (inactive)	> 10 µM (inactive)	> 10 µM (inactive)	> 10 µM (inactive)	> 10 µM (inactive)	> 10 µM (inactive)	> 10 µM (inactive)	> 10 µM (inactive)	> 10 µM (inactive)	> 10 µM (inactive)	> 10 µM (inactive)	> 10 µM (inactive)	> 10 µM (inactive)	> 10 µM (inactive)
N=C(N)Nc1nc2cc([N+](=O)[O-])ccc2[nH]1	> 100 µM (inactive)	> 100 µM (inactive)	66.2 µM (inactive)	> 100 µM (inactive)	56.6 µM (inactive)	69.2 µM (inactive)	> 100 µM (inactive)	> 100 µM (inactive)	> 100 µM (inactive)	93.5 µM (inactive)	22.1 µM (inactive)	> 100 µM (inactive)	> 100 µM (inactive)	> 100 µM (inactive)	> 100 µM (inactive)	86.1 µM (inactive)	> 100 µM (inactive)	> 100 µM (inactive)	> 100 µM (inactive)
CC(C)(C)c1ccc(-c2nc3ccccc3c(=O)o2)cc1	33.7 µM (inactive)	18.7 µM (inactive)	23.8 µM (inactive)	53.6 µM (inactive)	40.6 µM (inactive)	39.8 µM (inactive)	35.8 µM (inactive)	86.3 µM (inactive)	48.2 µM (inactive)	35.6 µM (inactive)	24 µM (inactive)	27.9 µM (inactive)	30.6 µM (inactive)	35.7 µM (inactive)	41.2 µM (inactive)	34.3 µM (inactive)	74.6 µM (inactive)	25.5 µM (inactive)	20.4 µM (inactive)

From ChEMBL document CHEMBL1201862, “PubChem BioAssay data set” (2004)
